# Results: patent EP1897542A1, “Aqueous formulation comprising an antitumor agent” (Sanofi-Aventis, priority 2006, dated 2008)
# How the values were obtained:
# [1] = In vitro hemolytic potential with dog erythrocytes, phosphate buffer vehicle (Example 1); format: cell-based; conditions: dog, whole blood, n=5 (mean), percentage of that induced by saponin
# Experimental: (§1) The following study was performed to evaluate the hemolytic potential of solutions of (2R)-2-[4-(7-bromo-2-quinolyloxy)phenoxy]propanoic acid in a 0.1 M pH 8 phosphate bufferred vehicle at concentrations of 10 mg/mL and 20 mg/mL. Saline (0.9% NaCl) was used as a negative control, and saponin (3% aqueous solution), which is a known inducer of hemolysis, was used as the positive control.
# (§2) Dog whole blood was mixed in a 1:1 ratio and a 9:1 ratio with solutions of the active ingredient in the vehicle and with the vehicles alone. Dog whole blood was also mixed in a 1:1 ratio and a 9:1 ratio with a 3% saponin solution as the positive control and saline (0.9% NaCl) as the negative control.
# (§3) After mixing, tubes were incubated for 30 minutes at 37°C, then centrifuged (3000 t/min.) for 10 minutes. Hemoglobin concentrate was dosed in the supernatant by spectrophotometry UV/visible (Genesis technologies) for the assessment of the in vitro hemolytic potential. The percent of hemolysis was calculated based on the results of the saponin samples.
# dog erythrocytes [2] = test: as above; format: cell-based; conditions: 10 and 20 mg/mL solutions in 0.1 M pH 8 phosphate buffer
# Experimental: as §1, §2, §3
# dog erythrocytes [3] = test: In vitro hemolytic potential in dog erythrocytes for a formulation containing a cyclodextrin (Example 4); format: cell-based; conditions: 10 mg/mL Active Ingredient in 0.05M pH 7 phosphate buffer with 10% (w/v) hydroxypropyl beta cyclodextrin, n=6 (mean), percentage of that induced by saponin, 30 min
# Experimental: Saline (0.9% NaCl) was used as the negative control, and saponin (3% aqueous solution) was used as the positive control.
# as §2, §3
# [4] = In vivo study in dogs with phosphate buffer formulation, 30-minute infusion (Example 6); set-up: species or system beagle dog; conditions: 0.1M phosphate buffer, single IV infusion over 30 minutes, 1 male and 1 female
# Experimental: Dosages were 25 and 50 mg/kg. Sampling for plasma level determination was taken for 1 day at the following intervals: end of infusion (0), 30 minutes, 1 hour, 3 hours, 6 hours, and 24 hours after the end of the infusion.
# [5] = In vivo study in rats with phosphate buffer formulation, 1-hour infusion (Example 7); conditions: 400 mg/kg dose, 0.1M phosphate buffer, single IV infusion over 1 hour, day of the infusion
# Experimental: Dosages were 0 (control), 100, 200, and 400 mg/kg.
# [6] = Preliminary animal toxicological studies, infusion of simple phosphate buffer formulation; format: in vivo; conditions: infused at 10 mg/mL or greater as a simple phosphate buffer formulation
# Text: (2R)-2-[4-(7-Bromo-2-quinolyloxy)phenoxy]propanoic acid may be administered as a liquid parenteral formulation. […] Since significant hemolysis can cause anemia, the hemolytic effect of (2R)-2-[4-(7-bromo-2-quinolyloxy)phenoxy]propanoic acid is an undesirable property for a pharmaceutical composition.
structure (smiles),measurement,setting,value
"C[C@@H](Oc1ccc(Oc2ccc3ccc(Br)cc3n2)cc1)C(=O)O [Active Ingredient, (2R)-2-[4-(7-bromo-2-quinolyloxy)phenoxy]propanoic acid]",hemolysis at 0.5 h,"[1]; pH 8, 10 mg/mL Active Ingredient in 0.1 M pH 8 phosphate buffer, Blood/Solution ratio 1:1",24%
same,hemolysis at 0.5 h,"[1]; pH 8, 10 mg/mL Active Ingredient in 0.1 M pH 8 phosphate buffer, Blood/Solution ratio 9:1",4.5%
same,hemolysis at 0.5 h,"[1]; pH 8, 20 mg/mL Active Ingredient in 0.1 M pH 8 phosphate buffer, Blood/Solution ratio 1:1",28%
same,hemolysis at 0.5 h,"[1]; pH 8, 20 mg/mL Active Ingredient in 0.1 M pH 8 phosphate buffer, Blood/Solution ratio 9:1",6.6%
same,hemolysis of dog erythrocytes (result in words),dog erythrocytes [2],induced hemolysis
same,Percentage of Hemolysis,dog erythrocytes [3]; Blood/Solution ratio 1:1,1.8%
same,Percentage of Hemolysis,dog erythrocytes [3]; Blood/Solution ratio 9:1,0.5%
same,visual hemolysis on plasma samples,"[4]; 25 mg/kg, seen at time 0 and 30 minutes post infusion (all animals), 1 hour (male)",visual hemolysis was observed
same,visual hemolysis on plasma samples,"[4]; 50 mg/kg, seen at time 0, 30 minutes, 1 hour, 3 hours (both animals) and 6 hours (female)",visual hemolysis was observed
same,"discolored urine (red/brown), animals affected",[5]; females,8 out of 10
same,"discolored urine (red/brown), animals affected",[5]; males,6 out of 10
same,hemolysis,[6],cause a degree of hemolysis
